Results taken from paper PMC11997127 (Scientific Reports, 2025).

Key:
[1] = molecular target: T1, Staphylococcus aureus lipase (SAL) (Staphylococcus aureus, UniProt Q2G155); experiment: X-ray co-crystal structures; assay type: biochemical
[2] = molecular target: T1, Staphylococcus aureus lipase (SAL); experiment: pNPB hydrolysis assay; assay type: biochemical

T1 sequence (Q2G155 297-690): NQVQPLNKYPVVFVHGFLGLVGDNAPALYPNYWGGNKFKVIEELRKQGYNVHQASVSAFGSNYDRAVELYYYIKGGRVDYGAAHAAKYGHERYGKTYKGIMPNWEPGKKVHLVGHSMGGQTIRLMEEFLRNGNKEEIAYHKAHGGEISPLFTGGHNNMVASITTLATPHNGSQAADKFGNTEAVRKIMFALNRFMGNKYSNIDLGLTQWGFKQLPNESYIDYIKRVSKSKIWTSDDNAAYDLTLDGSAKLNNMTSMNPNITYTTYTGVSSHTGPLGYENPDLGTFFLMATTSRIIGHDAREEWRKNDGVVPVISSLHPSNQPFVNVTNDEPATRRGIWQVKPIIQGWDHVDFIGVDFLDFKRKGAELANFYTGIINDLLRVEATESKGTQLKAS

Structure (SMILES) | IC50 [1] | IC50 [2]
OC1(c2ccc(Cl)c(C(F)(F)F)c2)CCN(CCCC(c2ccc(F)cc2)c2ccc(F)cc2)CC1 [penfluridol, 1-[4,4-bis(4-fluorophenyl)butyl]-4-[4-chloro-3-(trifluoromethyl)phenyl]piperidin-4-ol] | 7.3 µM | –
O=c1[nH]c2ccccc2n1C1CCN(CCCC(c2ccc(F)cc2)c2ccc(F)cc2)CC1 [pimozide, 3-[1-[4,4-bis(4-fluorophenyl)butyl]piperidin-4-yl]-1H-benzimidazol-2-one] | – | ~48.5 µM
